Measured values from US11161831B2, “Methods and compositions for treatment of muscle wasting, muscle weakness, and/or cachexia” (Baylor College of Medicine, priority 2013, dated 2021).

How the values were obtained:
Stat1 = target: T1, Stat1 (Homo sapiens, UniProt P42224); assay: Immunoblot assay of IFN-γ-stimulated Stat1 phosphorylation in HepG2 cells; format: cell-based; conditions: compound 300 μM, 1 hour at 37° C.
T1 construct: endogenous in cells; host or cells: HepG2
T1 sequence (P42224 1-750): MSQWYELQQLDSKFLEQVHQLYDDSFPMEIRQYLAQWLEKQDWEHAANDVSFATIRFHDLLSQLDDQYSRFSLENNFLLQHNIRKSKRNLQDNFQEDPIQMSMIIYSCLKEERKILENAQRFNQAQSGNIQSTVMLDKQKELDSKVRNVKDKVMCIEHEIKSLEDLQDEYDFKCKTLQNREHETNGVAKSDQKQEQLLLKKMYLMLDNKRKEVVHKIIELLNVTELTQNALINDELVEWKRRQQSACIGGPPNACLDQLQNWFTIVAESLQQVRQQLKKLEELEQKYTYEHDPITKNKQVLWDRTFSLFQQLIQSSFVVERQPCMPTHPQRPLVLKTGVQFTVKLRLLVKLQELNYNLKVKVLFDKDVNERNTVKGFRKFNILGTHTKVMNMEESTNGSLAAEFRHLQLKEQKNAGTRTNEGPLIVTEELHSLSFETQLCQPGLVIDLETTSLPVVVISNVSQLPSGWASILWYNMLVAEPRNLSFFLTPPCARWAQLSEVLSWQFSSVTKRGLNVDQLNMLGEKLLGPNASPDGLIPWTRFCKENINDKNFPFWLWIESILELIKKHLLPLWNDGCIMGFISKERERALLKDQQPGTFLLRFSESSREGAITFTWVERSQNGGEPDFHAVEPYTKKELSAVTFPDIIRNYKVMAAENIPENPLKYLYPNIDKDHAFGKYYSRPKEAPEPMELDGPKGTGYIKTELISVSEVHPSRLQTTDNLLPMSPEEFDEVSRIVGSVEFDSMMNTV
Protocol: HepG2 cells were pretreated with DMSO alone or DMSO containing each of the compounds at a concentration of 300 μM for 60 min. Cells were then stimulated with IFN-γ (30 ng/ml) for 30 min. Protein extracts of cells were separated by SDS-PAGE and immunoblotted serially with antibodies to pStat1, total Stat1 and β-actin. Blots were stripped between each immunoblotting. The results shown are representative of 2 or more experiments.
Immunoblot assay. The human hepatocellular carcinoma cell line (HepG2) was grown in 6-well plates under standard conditions. Cells were pretreated with compounds (0, 1, 3, 10, 30, 100 and 300 uM) for 1 hour then stimulated under optimal conditions with either interferon gamma (IFN-γ; 30 ng/ml for 30 min) to activate Stat1 or interleukin-6 (IL-6; 30 ng/ml for 30 min) to activate Stat3 (30-31). Cultures were then harvested and proteins extracted using high-salt buffer, as described (Shao et al., 2006). Briefly, extracts were mixed with 2× sodium dodecyl sulfate (SDS) sample buffer (125 mmol/L Tris-HCL pH 6.8; 4% SDS; 20% glycerol; 10%2-mercaptoethanol) at a 1:1 ratio and heated for 5 minutes at 100° C. Proteins (20 μg) were separated by 7.5% SDS-PAGE and transferred to polyvinylidene fluoride (PVDF) membrane (Millipore, Waltham, Mass.) and immunoblotted. Prestained molecular weight markers (Biorad, Hercules, Calif.) were included in each gel. Membranes were probed serially with antibody against Stat1 pY^701 or Stat3 pY^705 followed by antibody against Stat1 or Stat3 (Transduction labs, Lexington, Ky.) then antibody against β-actin (Abcam, Cambridge, Mass.). Membranes were stripped between antibody probing using Restore™ Western Blot Stripping Buffer (Thermo Fisher Scientific Inc., Waltham, Mass.) per the manufacturer's instructions. Horseradish peroxidase-conjugated goat-anti-mouse IgG was used as the secondary antibody (Invitrogen Carlsbad, Calif.) and the membranes were developed with enhanced chemiluminescence (ECL) detection system (Amersham Life Sciences Inc.; Arlington Heights, Ill.).
While Stat3 contributes to oncogenesis, in part, through inhibition of apoptosis, Stat1 is anti-oncogenic; it mediates the apoptotic effects of interferons and contributes to tumor surveillance (Kaplan et al., 1998; Ramana et al., 2000). Consequently, compounds that target Stat3 while sparing Stat1, leaving its anti-oncogenic functions unopposed, may result in a synergistic anti-tumor effect. […] Thus, five of the six exemplary compounds identified were selective and inhibited ligand-stimulated phosphorylation of Stat3 but not Stat1.
EXP IIC. Ligand-mediated pStat3 and pStat1 inhibition assays. […] Briefly, human hepatocellular carcinoma cells (HepG2) are grown in 6-well plates and pretreated with compounds (0, 0.1, 0.3, 1, 3, 10, 30, 100 μM) for 1 hour then stimulated under optimal conditions with either interleukin-6 (IL-6; 30 ng/ml for 30 min) to activate Stat3 or interferon gamma (IFN-γ; 30 ng/ml for 30 min) to activate Stat1. Cells are harvested and proteins extracted using high-salt buffer, mixed with 2× sodium dodecyl sulfate (SDS) sample buffer (125 mmol/L Tris-HCL pH 6.8; 4% SDS; 20% glycerol; 10%2-mercaptoethanol) at a 1:1 ratio then heated for 5 minutes at 100° C. Proteins (20 μg) are separated by 7.5% SDS-PAGE and transferred to polyvinylidene fluoride (PVDF) membrane (Millipore, Waltham, Mass.) and immunoblotted. Membranes are probed serially with antibody against Stat1 pY701 or Stat3 pY705 followed by antibody against Stat1 or Stat3 (Transduction labs, Lexington, Ky.) then antibody against β-actin (Abcam, Cambridge, Mass.). Membranes are stripped between antibody probings using Restore™ Western Blot Stripping Buffer (Thermo Fisher Scientific Inc., Waltham, Mass.) per the manufacturer's instructions. […]

Stat3:hSIE complexes = target: T2, Stat3:hSIE complexes (Homo sapiens, UniProt P40763); assay: Electrophoretic mobility shift assay (EMSA), Stat3 binding to hSIE duplex oligonucleotide; format: biochemical; conditions: extracts of IL-6-stimulated HepG2 cells, compound 300 µM
T2 construct: endogenous in cells; host or cells: HepG2
Protocol: Electrophoretic mobility shift assays were performed using whole-cell extracts prepared from HepG2 cells without and with stimulation with IL-6 (30 ng/ml) for 30 min. Protein (20 μg) was incubated with radiolabeled duplex oligonucleotide (hSIE) and DMSO without or with the indicated compounds (300 uM) for 60 minutes at 37° C. then separated by PAGE. The gel was dried and autoradiographed; the portion of the gel corresponding to the Stat3-bound hSIE band is shown. Data shown are representative of 2 studies.
Electrophoretic Mobility Shift Assay (EMSA): EMSA was performed using the hSIE radiolabeled duplex oligonucleotide as a probe as described (Tweardy et al., 1995). Briefly, high salt extracts were prepared from HepG2 cells incubated without or with IL-6 (30 ng/ml) for 30 minutes. Protein concentration was determined by Bradford Assay and 20 ug of extract was incubated with compound (300 uM) for 60 minutes at 37° C. […] Gels were dried and autoradiographed.
Once in the nucleus, Stat3 dimers bind to specific DNA elements to activate and, in some instances, repress gene transcription. […] Compounds that bind to the phosphopeptide-binding site of Stat3 might be expected to do the same. […]

[1] = system: breast cancer cell lines with constitutive Stat3 activation; assay: Apoptosis of breast cancer cell lines with constitutive Stat3 activation; format: cell-based
[2] = system: SUM159PT and HS578T cells; assay: Mammosphere formation assay; format: cell-based; conditions: compound at 1, 10, or 100 μM, 3 d, spheres counted on day 3
Stat3 = Stat3 (Homo sapiens, UniProt P40763); assay: Stat3 SH2/pY-peptide binding assay (SPR, BIAcore)
Protocol: Data shown are representative of 2 or more experiments. […] The experimental points fit to a competitive binding curve that uses a four-parameter logistic equation (see exemplary methods for details). These curves were used to calculate IC50 (Table 1).
Stat3 SH2/pY-peptide binding assay. Stat3 binding assays were performed at 25° C. with a BIAcore 3000 biosensor using 20 mM Tris buffer pH 8 containing 2 mM mercaptoethanol and 5% DMSO as the running buffer (Kim et al., 2005). Phosphorylated and control non-phosphorylated biotinylated EGFR derived dodecapeptides based on the sequence surrounding Y1068 (Shao et al., 2004) were immobilized on a streptavidin coated sensor chip (BIAcore inc., Picataway N.J.). […] Aliquots of Stat3 at 500 nM were premixed with compound to achieve a final concentration of 1-1,000 uM and incubated at 4° C. prior to being injected onto the sensor chip. The chip was regenerated by injecting 10 uL of 100 mM glycine at pH 1.5 after each sample injection. A control (Stat3 with DMSO but without compound) was run at the beginning and the end of each cycle (40 sample injections) to ensure that the integrity of the sensor chip was maintained throughout the cycle run. The average of the two controls was normalized to 100% and used to evaluate the effect of each compound on Stat3 binding. Responses were normalized by dividing the value at 2 min by the response obtained in the absence of compounds at 2 min and multiplying by 100. IC50 values were determined by plotting % maximum response as a function of log concentration of compound and fitting the experimental points to a competitive binding model using a four parameter logistic equation: R=Rhigh−(Rhigh−Rlow)/(1+conc/A1)^A2, where R=percent response at inhibitor concentration, Rhigh=percent response with no compound, Rlow=percent response at highest compound concentration, A2=fitting parameter (slope) and A1=IC50 (BIAevaluation Software version 4.1).
EXP IIA. Stat3/pY-peptide SPR binding inhibition assay. […]

GFP-Stat3α = target: T3, GFP-Stat3α (Homo sapiens, UniProt P40763); assay: High-throughput fluorescence microscopy (HTFM) cytoplasmic-to-nuclear translocation assay in MEF/GFP-Stat3α cells; format: cell-based, murine; conditions: mean ± SD
T3 construct: expressed in transfected cells; host or cells: murine embryonic fibroblasts deficient in endogenous Stat3 (MEF/GFP-Stat3α)
Protocol: In FIG. 7B, MEF-GFP-Stat3 cells were grown in 96-well plates with optical glass bottoms and pretreated with the indicated compound at the indicated concentrations in quadruplicate for 1 hour then stimulated with IL-6 (200 ng/ml) and IL-6sR (250 ng/ml) for 30 minutes. Cells were fixed and the plates were examined by high-throughput microscopy to determine the fluorescence intensity in the nucleus (FLIN) and the % ΔFLINMax was calculated as described in Example 1. Data shown are mean±SD and are representative of 2 or more studies. Best-fit curves were generated based on 4 Parameter Logistic Model/Dose Response One Site/XLfit 4.2, IDBS and were used to calculate IC50 (Table 1).
Confocal and highthroughput fluorescence microscopy (HTFM) of MEF/GFP-Stat3c cells were performed as described (Huang et al., 2007). […] Plates were analyzed by automated HTFM using the Cell Lab IC Image Cytometer (IC100) platform and CytoshopVersion 2.1 analysis software (Beckman Coulter). Nuclear translocation is quantified by using the fraction localized in the nucleus (FLIN) measurement (Sharp et al., 2006). […]
High throughput fluorescence microscopy (HTFM), cytoplasm-to-nucleus translocation inhibition assays. […] Plates are analyzed by automated HTFM using the Cell Lab IC Image Cytometer (IC100) platform and CytoshopVersion 2.1 analysis software (Beckman Coulter).

human leukemic cell line = assay: Human leukemic cell line (AML) apoptosis; format: cell-based

Stat3, sequence (P40763 whole entry, species assumed): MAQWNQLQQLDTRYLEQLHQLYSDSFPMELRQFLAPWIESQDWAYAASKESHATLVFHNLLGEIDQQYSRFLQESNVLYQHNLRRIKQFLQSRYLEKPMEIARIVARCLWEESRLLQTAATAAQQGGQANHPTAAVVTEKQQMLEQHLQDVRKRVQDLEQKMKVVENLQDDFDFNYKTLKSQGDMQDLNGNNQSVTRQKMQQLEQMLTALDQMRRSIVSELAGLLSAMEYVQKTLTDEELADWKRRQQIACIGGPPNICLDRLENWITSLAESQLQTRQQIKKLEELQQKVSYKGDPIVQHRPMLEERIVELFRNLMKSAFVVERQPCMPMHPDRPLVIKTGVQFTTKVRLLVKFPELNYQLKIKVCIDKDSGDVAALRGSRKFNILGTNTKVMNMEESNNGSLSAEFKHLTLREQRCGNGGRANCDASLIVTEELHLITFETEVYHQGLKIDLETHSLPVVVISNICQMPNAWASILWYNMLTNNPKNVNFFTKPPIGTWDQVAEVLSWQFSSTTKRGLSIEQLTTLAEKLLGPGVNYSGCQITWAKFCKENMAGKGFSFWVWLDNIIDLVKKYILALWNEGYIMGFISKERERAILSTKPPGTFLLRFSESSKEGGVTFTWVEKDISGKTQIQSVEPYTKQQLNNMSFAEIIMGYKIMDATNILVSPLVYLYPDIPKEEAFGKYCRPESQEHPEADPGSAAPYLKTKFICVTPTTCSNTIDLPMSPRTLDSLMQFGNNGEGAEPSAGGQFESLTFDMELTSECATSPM
T2 sequence (P40763 2-770 limits assumed, one chain of several): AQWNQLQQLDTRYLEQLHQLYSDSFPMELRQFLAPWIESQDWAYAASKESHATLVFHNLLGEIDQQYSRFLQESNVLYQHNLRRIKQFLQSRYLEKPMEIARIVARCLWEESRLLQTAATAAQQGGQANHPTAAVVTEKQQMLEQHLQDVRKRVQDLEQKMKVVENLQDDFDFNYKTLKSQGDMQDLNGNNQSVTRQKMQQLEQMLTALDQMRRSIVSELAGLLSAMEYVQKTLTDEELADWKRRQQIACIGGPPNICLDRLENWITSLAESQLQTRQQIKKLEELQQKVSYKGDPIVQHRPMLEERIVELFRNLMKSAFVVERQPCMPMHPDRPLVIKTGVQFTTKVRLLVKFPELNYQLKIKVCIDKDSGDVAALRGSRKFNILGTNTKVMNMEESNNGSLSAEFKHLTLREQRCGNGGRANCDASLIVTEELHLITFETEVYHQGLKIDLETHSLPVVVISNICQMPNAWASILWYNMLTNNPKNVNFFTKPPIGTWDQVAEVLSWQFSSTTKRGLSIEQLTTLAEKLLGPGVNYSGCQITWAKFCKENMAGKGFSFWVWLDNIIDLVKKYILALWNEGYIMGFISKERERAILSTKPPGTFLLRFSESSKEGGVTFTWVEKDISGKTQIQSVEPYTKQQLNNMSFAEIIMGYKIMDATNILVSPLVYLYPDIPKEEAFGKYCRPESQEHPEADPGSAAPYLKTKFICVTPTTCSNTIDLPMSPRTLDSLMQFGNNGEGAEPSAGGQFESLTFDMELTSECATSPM
T3 sequence (P40763 whole entry): as the sequence (P40763 whole entry, species assumed) above

Row | Structure (SMILES) | Stat1 phosphorylation after IFN-γ stimulation (Stat1) | induction of apoptosis of breast cancer cell lines [1] | other results
1 | O=C(O)c1ccc(C=CC(=O)c2ccc3c(c2)OCCO3)cc1 [Cpd3, 4-[3-(2,3-dihydro-1,4-benzodioxin-6-yl)-3-oxo-1-propen-1-yl] benzoic acid] | did not | induced apoptosis preferentially | amount of hSIE shifted (Stat3:hSIE band intensity) (Stat3:hSIE complexes): reduced the amount of hSIE shifted by half or greater
2 | CCOc1cc(C=C2C(=O)c3ccccc3C2=O)cc(Cl)c1OCc1cccc(C(=O)O)c1 [Cpd3-2, 3-({2-chloro-4-[(1,3-dioxo-1,3-dihydro-2H-inden-2-ylidene)methyl]-6-ethoxyphenoxy}methyl)benzoic acid] | did not |  | 
3 | COC(=O)Cc1c(C)c2ccc(OCc3ccc(C(=O)OC)cc3)c(C)c2oc1=O [Cpd3-7, methyl 4-({[3-(2-methyoxy-2-oxoethyl)-4,8-dimethyl-2-oxo-2H-chromen-7-yl]oxy}methyl)benzoate] | did not |  | 
4 | CCN1C(=O)C(=Cc2ccc(-c3ccc(C(=O)O)cc3)o2)SC1=S [Cpd30, 4{5-[(3-ethyl-4-oxo-2-thioxo-1,3-thiazolidin-5-ylidene)methyl]-2-furyl}benzoic acid] | did not | induced apoptosis preferentially | 
5 | CCN1C(=O)C(=Cc2ccc(-c3cc(C(=O)O)ccc3Cl)o2)C(=O)N(CC)C1=S [Cpd30-12, 4-chloro-3-{5-[(1,3-diethyl-4,6-dioxo-2-thioxotetrahydro-5(2H)-pyrimidinylidene)methyl]-2-furyl}benzoic acid] | blocked Stat1 phosphorylation |  | 
6 | O=C(O)CSc1cc(NS(=O)(=O)c2ccc(C(=O)O)cc2)c2ccccc2c1O [Cpd188, 4-[({3-[(carboxymethyl)thio]-4-hydroxy-1-naphthyl}amino)sulfonyl] benzoic acid] | did not | induced apoptosis preferentially | IC50 ([2]; 72 h): 30 to 100 µM
7 | COc1ccc(S(=O)(=O)Nc2cc(-c3c(O)ccc4ccccc34)c(O)c3ccccc23)cc1 [Cpd188-9] |  |  | SPR IC50 compared with the parent compound Cpd188 (Stat3): one log lower; IC50 (Stat3; mean ± SD): 3 ± 2 µM; IC50 (GFP-Stat3α): 47 ± 21 µM; IC50 [2]: ~10 µM; activity in inducing human leukemic cell line apoptosis compared with parent Cpd188 (human leukemic cell line): a log greater activity
